One data set concerns the target T1, p53 Y220C (Homo sapiens, UniProt P04637, Y220C).
T1 construct: a truncated mutant containing only amino acids 94-312 of p53; made in house; host or cells: E. coli
Put plainly: DNA binding test (HTRF): binding of P53Y220C protein to DNA. The class given is biochemical. To be noted: multiple ratio of EC50 of the compound to the reference compound, DNA binding test.

A further data set deals with Caco-2 cells. Put plainly: Caco-2 cell permeability test. In kind it is in vitro ADME. The conditions noted are these: Caco-2, 10 μM, 120 min. Here is the method:
Caco-2 cells (ATCC, Cat. No. HTB-37) were inoculated to a 96-well plate (Corning HTS Transwell, Cat. No. 3391) at 1.25×10^5/cm2, and the culture medium (DMEM+10% FBS+1% Penicillin-Streptomycin Liquid (100×)+1% NEAA) was replaced every 3 to 4 days. The plate was placed in an incubator at 37° C. with 5% CO2 until a confluent cell monolayer was formed after 21 to 28 days. Before the transport experiment, the culture medium was removed from the cell culture plate, and the plate was washed twice with pre-warmed HBSS buffer (10 mM HEPES, pH 7.4), and 100 μL of HBSS buffer was added to each well. After incubation at 37° C. for 30 minutes, the TEER value was measured using a cell resistance meter (Millicell-ERS2) to confirm the integrity and density of the monolayer cells. The HBSS buffer was discarded, the upper plate containing the cell monolayer membrane was transferred to the corresponding receiving plate, 10 mM test compound stock solution was diluted to a concentration of 10 μM with HBSS transport buffer containing 0.5% BSA, and it was added to the apical side (A side) and basolateral side (B side), respectively. Incubation was carried out for 120 min at 37° C., 5% CO2, and 95% relative humidity, and the permeation of the test compound from A side to B side or from B side to A side and the efflux rate of the compound were determined. The test compound and the reference compound were quantified by LC-MS/MS analysis based on the peak area ratio of analyte/internal standard. The apparent permeability coefficient Papp (cm/s) was calculated using the following formula:
[formula] • wherein, dCr/dt represented the functional relation between cumulative concentration of compound in receptor compartment and time; V represented the volume of solution in receptor compartment (0.1 mL at apical side, and 0.25 mL at basolateral side); A represented the transport surface area, i.e., the monolayer cell area was 0.0804 cm^2; CO represented the initial concentration of compound in donor compartment.
The efflux ratio was calculated using the following formula: […]
The percent recovery was calculated using the following formula:
[formula] [formula] • wherein, Vd represented the volume of donor compartment (0.1 mL on the apical side and 0.25 mL on the basolateral side); C and Cr represented the final concentrations of the transported compound in the donor and receptor compartment, respectively; Cc represented the compound concentration in cell lysate; Vc represented the volume of insert well (which was 0.1 mL in this experiment).

The next data set has as its system NUGC-3 cells. As to the kind of experiment: NUGC-3 cell proliferation assay (CTG). In kind it is cell-based, human. The conditions noted are these: multiple ratio of GI50 of the compound to the reference compound. In a few lines: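 GI50 derived by variable-slope regression of percent inhibition (normalized to blank and 0.1% DMSO controls) from CTG luminescence. Compound was given as 10 threefold dilutions, highest final 10 μM, to overnight-seeded NUGC-3 cells (250/well) for 6 days, 37° C, 5% CO2.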

Marks after values point to notes of the source that are not given here.

Take `COc1cc(S(C)(=O)=O)ccc1NCC#Cc1nc2c(NC3CC[C@@H](N4CC5(COC5)C4)C[C@@H]3F)cccn2c1CC(F)(F)F` (some centres unmarked) [Compound 48]: on p53 Y220C, the “Compound EC50 (nM)/Reference compound EC50 (nM)” value is “B (B: EC50 of the reference compound<EC50 of the compound≤3.0*EC50 of the reference compound)”. The “Efflux Ratio” value with Caco-2 cells turned out to be 2.58. Further, in the data set on Caco-2 cells (A to B), the “Papp A to B” value is 2.50 10^−6 cm/s. The “Papp B to A” value with Caco-2 cells (B to A) was 6.43 10^−6 cm/s. For the same compound, in the data set on NUGC-3 cells, the “Compound GI50 (nM)/Reference compound GI50 (nM)” value is recorded as “B (B: GI50 of the reference compound < GI50 of the compound ≤ 3.0 * GI50 of the reference compound)”.

The values above are taken from patent US20260132128A1, “COMPOUND FOR RECOVERING P53 MUTATION FUNCTION AND USE THEREOF” (SHENZHEN ZHONGGE BIOLOGICAL TECHNOLOGY CO., LTD., priority 2022, published 2026).
